Values joined by “and” are separate entries in the source; they are usually repeats but may differ in a detail not shown here. Identical values can stand only once. Like-named read-outs stand apart in the source and are kept apart here.
Key:
[1] = target: T1, human DP receptors (Homo sapiens, UniProt Q13258); experiment: competitive whole-cell [^3H]PGD2 radioligand binding assay in HEK-DP cells; details: for binding to DP receptors / competition with [^3H]PGD2: at least to a concentration of 100 nM (data not shown)
T1 construct: expressed in transfected cells
T1 sequence (Q13258 1-359): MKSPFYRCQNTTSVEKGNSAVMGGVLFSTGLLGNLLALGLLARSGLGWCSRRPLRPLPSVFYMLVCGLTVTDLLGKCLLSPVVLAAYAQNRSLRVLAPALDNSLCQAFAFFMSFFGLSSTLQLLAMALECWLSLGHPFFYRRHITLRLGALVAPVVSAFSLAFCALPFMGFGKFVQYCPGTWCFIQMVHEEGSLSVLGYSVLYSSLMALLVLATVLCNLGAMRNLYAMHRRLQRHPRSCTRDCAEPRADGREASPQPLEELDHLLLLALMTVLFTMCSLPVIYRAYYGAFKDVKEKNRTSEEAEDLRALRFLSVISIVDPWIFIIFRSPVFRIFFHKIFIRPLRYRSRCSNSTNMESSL
Method: The medium of HEK-DP cells cultured in 10-cm dishes was switched from DMEM containing 10% fetal bovine serum to Opti-MEM at 37 °C for 16 h containing antibiotics, as stated previously. Cells were trypsinized and then resuspended at 1.0 x 10^6 cells/sample in 100 μl of ice-cold 10 mM HEPES buffer (pH 7.4) containing 1 mM EDTA and 10 mM MnCl2 (Sigma–Aldrich). […] Samples were incubated for 2 h at 4 °C, and then the assay was terminated by filtration through Whatman GF/C glass filters (Whatman). Filters were then washed three to five times with ice-cold HEPES buffer, and radioactivity was measured by liquid scintillation counting ([20]).

[2] = target: T1, human DP receptors; experiment: cAMP formation assay in HEK-DP cells; assay type: cell-based; details: for effect on DP receptors in terms of cAMP accumulation: at least up to 100 nM; for τ (cAMP formation), operational efficacy / Kd / τ' (cAMP formation): Black/Leff operational model; for τ (cAMP formation), operational efficacy / Kd: partial agonists; for Kd: read-out: KA (cAMP formation), apparent affinity; for Emax: 60 min, normalized to 100 nM PGD2-stimulated cAMP as 100%; for EC50: 60 min treatment; for τ' (cAMP formation): full agonists, τ' = KA' x R
Method: HEK-DP cells were cultured in 6-well plates and, prior to the experiments, the medium was switched from DMEM to Opti-MEM (Thermo Fisher Scientific) containing 250 μg/ml geneticin, 200 μg/ml hygromycin B, and 100 μg/ml gentamicin for 16 h. […] Three hundred microliters of TE buffer (50 mM Tris–HCl, 4 mM EDTA [pH 7.5]) was added, and cells were scraped and transferred to microcentrifuge tubes. Samples were boiled for 8 min, placed on ice, and then centrifuged for 1 min at 16,000g. Between 5 and 25 μl of the supernatants representing approximately 10^4 cells was added to 50 μl of TE buffer containing [^3H]cAMP (PerkinElmer Life Science) and then to 100 μl of 0.06 mg/ml PKA (Sigma–Aldrich; #P5511). The mixture was vortexed and incubated on ice for 120 min. Samples were added to 100 μl of TE buffer containing 2% of bovine serum albumin and 26 mg/ml of powdered activated charcoal (Sigma–Aldrich; #C7606). After vortexing and centrifugation at 16,000g for 5 min, 200 μl of the supernatants were transferred to vials for liquid scintillation.
(§1) The equation "operational model-partial agonist" was performed using the results presented in Figure 2, as reported previously ([20]). The basal level was 0 (Fig. 2A; cAMP) or 1 (Fig. 2B, TCF), and Hill slopes were specified as 1. […] The total responses evoked by the precursor prostanoid and its metabolites were calculated using the formula below ([23]): Response=[A1]/KA1×Tau1+[A2]/KA2×Tau2/[A1]/KA1×(Tau1+1)+[A2]/KA2×(Tau2+1)+1×EffectMax

[3] = target: T1, human DP receptors; experiment: TCF/β-catenin-mediated luciferase reporter assay in HEK-DP cells; assay type: cell-based; details: for effect on DP receptor-mediated activation of TCF/β-catenin signaling / Emax (fold), β-catenin/TCF-mediated luciferase activity / EC50 / Emax: HEK-DP cells; for effect on DP receptor-mediated activation of TCF/β-catenin signaling: up to 100 nM; for τ (TCF transcriptional activity), operational efficacy / Kd: Black/Leff operational model, partial agonists; for Kd: read-out: KA (TCF transcriptional activity), apparent affinity; for Emax (fold), β-catenin/TCF-mediated luciferase activity / Emax: 16 h; for Emax (fold), β-catenin/TCF-mediated luciferase activity: vehicle-treated control as 1.0; for EC50: 16 h treatment; for Emax: read-out: Emax of TCF/β-catenin activity as % of the PGD2 value
Method: HEK-DP cells were cultured in 6-well plates and, prior to the experiments, medium was switched to Opti-MEM for 16 h with antibiotics, as stated previously. Cells were transiently transfected using HyliMax reagent (Dojindo) with 400 ng/well of either TOP flash or FOP flash reporter plasmids and 2 ng/well of pRL-CMV plasmid (Promega), as described previously ([20]). […] Cells were then lysed and assayed using a dual luciferase reporter assay system (Promega) according to the manufacturer's instructions with TECAN infinite M200 (TECAN). Data were normalized by calculating the ratios of firefly luciferase values to corresponding renilla luciferase scores and corrected for background activity by subtracting FOP flash scores from the corresponding TOP flash values, as described previously ([20]).
as §1

[4] = cited from earlier work
[5] = test system: platelets; design: method as in PMID 17452035; details: collagen-induced platelet aggregation; cited from earlier work

| SMILES | binding to DP receptors / competition with [^3H]PGD2 [1] | effect on DP receptors in terms of cAMP accumulation ([2]; HEK-DP cells) | effect on DP receptor-mediated activation of TCF/β-catenin signaling [3] | τ (cAMP formation), operational efficacy [2] | Kd [2] | Emax ([2]; HEK-DP cells) | EC50 ([2]; HEK-DP cells) | τ (TCF transcriptional activity), operational efficacy [3] | Kd [3] | Emax (fold), β-catenin/TCF-mediated luciferase activity [3] | EC50 [3] | Emax [3] | IC50 [1] | τ' (cAMP formation) [2] | also measured |
| --- | --- | --- | --- | --- | --- | --- | --- | --- | --- | --- | --- | --- | --- | --- | --- |
| CCCCC/C=C/C=C1/C(=O)C[C@H](O)[C@@H]1C/C=C\CCCC(=O)O [15-d-PGD2, 15-deoxy-Δ^12,14-PGD2] | could not bind to DP receptors | little effects | little effect |  |  |  |  |  |  |  |  |  |  |  |  |
| CCCCC/C=C\C=C1\C(=O)C=C[C@@H]1C/C=C\CCCC(=O)O [15-d-PGJ2, 15-deoxy-Δ^12,14-PGJ2] | could not bind to DP receptors | little effects | little effect |  |  |  |  |  |  |  |  |  |  |  |  |
| CCCCCC(=O)CC[C@H]1C(=O)C[C@H](O)[C@@H]1C/C=C\CCCC(=O)O [DK-PGD2, 13,14-dihydro-15-keto PGD2] |  |  |  | 0.17 | 15 nM | ~14% | ~62.4 nM and 62.4 nM | 0.21 | 18.9 nM | about 1.28 fold | 34.7 nM | ~40% |  |  |  |
| CCCCC[C@H](O)/C=C/[C@H]1C(=O)C[C@H](O)[C@@H]1C/C=C\CCCC(=O)O [PGD2, Prostaglandin D2] |  |  |  |  |  | 100% | ~0.3 nM and 0.301 nM |  |  |  | ~0.08 nM and 0.0892 nM |  | 2.48 nM | 11.48 | half-life in blood ([4]; blood): 0.9 min; half-life in plasma ([4]; plasma): 30 min; half-life in blood ([4]; printed as blood): 30 min |
| CCCCC[C@H](O)/C=C/[C@H]1C(=O)C=C[C@@H]1C/C=C\CCCC(=O)O [PGJ2, prostaglandin J2] |  |  |  |  |  | 102 ± 20.2% | ~0.05 nM and 0.0513 nM |  |  |  | ~0.08 nM and 0.0758 nM |  | 5.11 nM | 86.76 | time-dependent cAMP formation compared with PGD2, with IBMX pretreatment ([2]; HEK-DP cells, 0.3 nM ligand, 0.1 mg/ml IBMX for 25 min): significantly more cAMP from 5 to 60 min compared with PGD2; time-dependent cAMP formation compared with PGD2, without IBMX pretreatment ([2]; HEK-DP cells, 0.3 nM ligand, no IBMX): significantly form more cAMP from 10 to 30 min compared with PGD2; potency of inhibiting platelet aggregation, times lower than that of PGD2 [5]: 13 times |
| CCCCCC(O)CC=C1C(=O)C=CC1CC=CCCCC(=O)O (stereo not shown) [Δ^12-PGJ2] |  |  |  | 4.08 | 117 nM | ~67% | ~28.9 nM and 28.9 nM | 2.44 | 29.8 nM | 2.21 fold | 8.96 nM | ~70% |  |  |  |

Reference: PMC12145828 (The Journal of Biological Chemistry, 2025)
